Columns and labels:
[1] = test system: TamR-tf (HEA3); assay: 4OHT dose response of ZsGreen expression in transduced Jurkat cells; assay type: cell-based, human; details: 4OHT 0 nM-1000 nM, flow cytometry (FIG. 2)
From the text: (§1) Jurkat cells were transduced at a MOI of 5 with lentivirus packaging constructs described above in which a dual packaging approach in which each plasmid is co-transfected into 293T cells during lentiviral production. This construct utilized molar ratio of 1:2 of construct A to construct B. Construct A encodes the chimeric transcription factor HEA3 linked via a ribosomal cleavage sequence, T2A, to the tracking and selection marker EGFRt. Construct B encodes the synthetic, HEA3-responsive promoter, 7xHBD/mE1b which regulates expression of the transgene ZsGreen-DR1, a short half-life green fluorescent reporter gene.
Cells were harvested and were then subjected to treatment with 4OHT with concentrations ranging from 0 nM-1000 nM, as indicated. Samples were harvested, washed, and stained with EGFRt-biotin, followed by strepavidin-APC, and then analyzed by flow cytometry for ZsGreen expression.

[2] = test system: TamR-tf (HEA3); assay: ZsGreen expression by flow cytometry in Jurkat cells transduced with dual packaged TamR ZsGreen lentivirus (constructs A and B); assay type: cell-based, human; details: 500 nM 4OHT for 24 hours, flow cytometry (FIG. 1)
From the text: An alternative of the TamR-LV system allows for constitutive HEA3 expression and inducible expression of either ZsGreen or chimeric antigen receptors, permitting kinetic analysis and biological effect controlled in an “ON” and “OFF” manner by the presence or absence of tamoxifen. For this, two constructs were used: 1) HEA-3 is driven by the human EF1 a promoter and linked to the constructed truncated EGFR (EGFRt) transmembrane marker protein by a T2A skip-linker sequence and cloned into a third generation epHIV7 self-inactivating lentivirus packaging plasmid (construct A). (See FIGS. 9A, 9B and 9C; SEQ ID NO: 39; Table 1: SEQ ID NO: 8 and SEQ ID NO: 9) and 2) 7xHBD/[…] controls tamoxifen-dependent expression of ZsGreen cloned into pcDNA3.1(−) which was engineered to lack the commercially used CMV promoter (construct B) (See Table 12; SEQ ID NO: 41). ZsGreen1 is a human codon-optimized ZsGreen variant that encodes the brightest commercially available green fluorescent protein. (Available from Clontech).
Jurkat cells were transduced at a MOI of 5 with lentivirus packaging constructs described above in which a dual packaging approach in which each plasmid is co-transfected into 293T cells during lentiviral production. […]

[3] = test system: TamR-tf (HEA3); assay: On and off rate kinetics of ZsGreen expression in transduced Jurkat cells (4OHT washout and re-stimulation); assay type: cell-based, human
From the text: as §1
The population was subjected to 500 nM 4OHT stimulation for 48 hours, and then sorted for ZsGreen+cells utilizing FACS, yielding a >99% ZsGreen+population on immediate post-sort analysis. Cells were subsequently expanded in culture for 3 weeks, and then prepared for kinetic studies. Cells were divided into 3 treatment groups: (1) no 4OHT (2) 200 nM 4OHT (added every 48 hours) (3) 24 hour 200 nM 4OHT, followed by washout 1× in PBS, then culture in 4OHT free media for 14 days, followed by a 24 hour re-stimulation with 200 nm 4OHT, and then washout in 1×PBS. At each time point, samples were harvested and analyzed via flow cytometry for ZsGreen expression. Results are shown in FIG. 3 and are presented as % ZsGreen+.

[4] = test system: TamR-tf (HEA3); assay: Inducible CD19CAR/Her2t expression in Jurkat cells transduced with TamR CD19CAR LV containing DHFRdm (flow cytometry and western blot); assay type: cell-based, human; details: construct including DHFRdm, 500 nM 4OHT (FIG. 7)
Procedure: Construction of TamR CD19CAR LV was done through dual packaging of constructs A and B. Construct A contains HEA3 linked via a ribosomal cleavage sequence, T2A, to the tracking and selection marker EGFRt.
Cells were transduced with TamR CD19CAR LV at a MOI of 1, expanded in culture, selected for EGFRt via magnetic bead selection. Following further expansion cells were treated with […] alone (EtOH) or 500 nM 4OHT, and harvested for flow cytometry, (upper panel). FIG. 7. Samples were stained with EGFRt-APC antibody and Herceptin-biotin, followed by SA-PE. Parental (untransduced Jurkat) is shown for comparison. Samples were also prepared for western blot, the primary antibody used is an anti-CD247 mouse mAb which recognizes the intracellular CD3 zeta chain on the CD19CAR (˜48 kDa). The endogenous CD3 zeta migrates at ˜23 kDa.

[5] = test system: TamR-tf (HEA3); assay: Inducible CD19CAR/Her2t expression in Jurkat cells transduced with TamR-CD19CAR LV (flow cytometry and western blot); assay type: cell-based, human; details: construct not including DHFRdm, 500 nM 4OHT (FIG. 6)
From the text: Construction of the vector was accomplished by dual packaging of transfer plasmids housing constructs as described above at a plasmid molar ratio of 1:1. (See FIGS. 6C and 7C) Construct A under the constitutive EF-lalpha promoter encodes TamR-tf (HEA3) linked via a ribosomal cleavage sequence, T2A, to the tracking and selection marker EGFRt. (See FIGS. 9A, 9B and 9C; SEQ ID NO: 39, Table 1: SEQ ID NO: 8 and SEQ ID NO: 9) Construct B contains the 7xHBD/mE1b promoter with downstream transgene cDNA including CD19CAR linked via 2a cleavage sequence to Her2t, a tracking and selection marker. (See Table 12; SEQ ID NO: 41; Table 2 SEQ ID NO: 10; FIG. 11; SEQ ID NO: 44). Another construct was prepared adding an additional selective marker DHFRdm (See FIG. 12; SEQ ID NO: 46).
Human Jurkat cells were transduced at a MOI of 2, then were expanded in culture, and selected for EGFRt+ cells via magnetic bead selection. After further expansion, cells were either treated with vehicle alone (EtOH) or 500 nM 4OHT, and harvested for flow cytometry. Samples were stained with EGFRt-APC antibody and Herceptin-biotin, followed by SA PE. Samples were also prepared for western blot, the primary antibody used is an anti-CD247 mouse mAb which recognizes the intracellular CD3 zeta chain on the CD19CAR (˜48 kDa). The endogenous CD3 zeta migrates at ˜23 kDa.

[6] = test system: TamR-tf (HEA3); assay: Inducible Her2t expression in human CD4 central memory T cells transduced with TamR CD19CAR LV (with DHFRdm); assay type: cell-based; details: 500 nM 4OHT for 24 hours plus antiCD3/antiCD28 beads (FIG. 8)
Procedure: CD4 central memory cells were obtained from peripheral blood by selecting cells through flow cytometry for markers CD4, and CD62L and negative for CD45RO. Cells were cultured anti-CD3/anti-CD28 beads for 3 days. After 3 days, CD4 Central memory cells were transduced at a MOI of 5 with a lentivirus which packages constructs A and B. (FIG. 8B). Construct A encodes the chimeric transcription factor HEA3 linked via a ribosomal cleavage sequence, T2A, to the tracking and selection marker EGFRt. (See FIGS. 9A, 9B and 9C; SEQ ID NO: 39; Table 1; SEQ ID NO: 8 and SEQ ID NO: 9). […] (See Table 12; SEQ ID NO: 41; Table 2 SEQ ID NO: 10; FIG. 11; SEQ ID NO: 44; FIG. 12; SEQ ID NO: 46).
On day 21 after transduction, cells were enriched for EGFRt utilizing magnetic bead selection, and subsequently expanded with irradiated feeder cells, IL2, and IL15. Two weeks after expansion, cells were cryopreserved. In the experiment depicted above, CD4+ CEM cells which were mock transduced, or CD4+TamR CD19CAR LV were thawed, placed in culture with CD3/CD28 beads, IL-2, IL-15. CD4+TamRCD19CAR LV were treated or not with 500 nM 4OHT for 24 hours. All samples were harvested washed, then stained with an EGFRt-APC antibody and Her2t-biotin, followed by SA-PE, and analyzed via flow cytometry.

[7] = test system: TamR-tf (HEA3); assay: ZsGreen expression in primary CD8 central memory cells transduced with constructs A and B; assay type: cell-based, human; details: inducer plus antiCD3/anti-CD28 beads (FIG. 5B)
Procedure: CD8 central memory cells were obtained from peripheral blood by selecting cells through flow cytometry for markers CD8, and CD62L and negative for CD45RO. Cells were cultured with anti-CD3/anti-CD28 beads for 3 days.
as §1, with “After 3 days, CD4 or CD8 central memory” for “Jurkat”
(§2) On day 21 after transduction, cells were enriched for EGFRt, and subsequently expanded with feeder cells, IL2, and IL15. Following expansion, cells were divided into 3 treatment groups, 4OHT alone (A), 4OHT combined with CD3/CD28 bead cotreatment (B) or 4OHT alone for 48 hours, followed by addition of CD3/CD28 beads (C). […] All samples were harvested at indicated time points following 4OHT treatment, stained with EGFRt-biotin antibody, followed by SA-APC, and analyzed for flow cytometry. […]

[8] = test system: TamR-tf (HEA3); assay: ZsGreen expression in primary CD4 central memory cells transduced with constructs A and B; assay type: cell-based, human; details: inducer plus antiCD3/anti-CD28 beads (FIG. 4B)
Procedure: CD4 central memory cells were obtained from peripheral blood by selecting cells through flow cytometry for markers CD4, and CD62L and negative for CD45RO. Cells were cultured with anti-CD3/anti-CD28 beads for 3 days.
as §1, with “After 3 days, CD4 or CD8 central memory” for “Jurkat”
as §2

SMILES	concentration effective to induce expression of the transgene (ZsGreen) [1]	cells expressing ZsGreen [2]	ZsGreen expression after 4-OHT washout, % of the max ZsGreen activity ([3]; 200 nM 4OHT then washout, within 5 days (FIG. 3))	ZsGreen activity after 4-OHT is added back, % max activity ([3]; re-stimulation with 200 nM 4OHT, within 2 days (FIG. 3))	cells expressing both EGFRt and Her2t [4]	cells expressing both EGFRt and Her2t [5]	primary cells expressing both EGFRt and Her2t [6]	primary transduced CD8 cells expressing ZsGreen [7]	primary transduced CD4 cells expressing ZsGreen [8]
CC/C(=C(\c1ccc(O)cc1)c1ccc(OCCN(C)C)cc1)c1ccccc1 [4-OHT, 4-hydroxytamoxifen]	≥ 200 nM	about 50%	less than 10%	about 100%	–	–	–	–	–
CC/C(=C(\c1ccccc1)c1ccc(OCCN(C)C)cc1)c1ccccc1 [tamoxifen, 2-(4-((1Z)-1,2-diphenyl-1-butenyl)phenoxy)-N,N-dimethyl-ethanamine]	–	–	–	–	about 7.5%	about 42.6%	about 14.7%	About 37%	About 70%

Source: US11155616B2, “Drug regulated transgene expression” (Seattle Children's Hospital, priority 2014, dated 2021)
